# Results from patent US4182897A, “Amino- or guanidino-phenylpropionic acid derivatives” (Torii & Co., Ltd., priority 1977, dated 1980).
# Where a name gives a salt, the structure may show the parent alone. Read-outs that look alike come from different tables or passages of the source.
# Legend:
# [1] = target: Human Plasma Kallikrein (Homo sapiens, UniProt P03952); assay: Inhibitory effect on ester-hydrolyzing activity of human plasma kallikrein (TAMe substrate); assay type: biochemical; settings: for inhibition at 1000 µM: read-out: percent inhibition at 10^-3 M (kallikrein); for inhibitory action on kallikrein: in vitro
# Sequence of Human Plasma Kallikrein (P03952 391-638 limits assumed): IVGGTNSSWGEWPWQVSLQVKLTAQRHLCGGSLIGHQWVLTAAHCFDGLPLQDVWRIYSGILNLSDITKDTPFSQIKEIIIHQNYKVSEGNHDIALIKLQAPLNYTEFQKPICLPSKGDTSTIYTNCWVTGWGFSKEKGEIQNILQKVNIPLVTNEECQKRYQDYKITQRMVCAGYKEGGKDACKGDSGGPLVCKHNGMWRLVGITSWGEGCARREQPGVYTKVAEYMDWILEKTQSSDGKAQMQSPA
# Sequence of Human Plasma Kallikrein (P03952 20-390 partner limits assumed): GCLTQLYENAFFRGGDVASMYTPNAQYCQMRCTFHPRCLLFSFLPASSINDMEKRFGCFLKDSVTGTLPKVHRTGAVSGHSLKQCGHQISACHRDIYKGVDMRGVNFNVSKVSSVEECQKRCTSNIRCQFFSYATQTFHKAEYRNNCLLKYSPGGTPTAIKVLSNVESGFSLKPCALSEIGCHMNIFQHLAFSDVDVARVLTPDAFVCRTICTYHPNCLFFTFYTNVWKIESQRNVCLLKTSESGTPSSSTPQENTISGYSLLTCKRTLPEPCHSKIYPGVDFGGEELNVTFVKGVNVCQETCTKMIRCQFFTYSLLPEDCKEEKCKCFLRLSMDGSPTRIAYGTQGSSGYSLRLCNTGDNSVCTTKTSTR
# Method: (A) Determination of Enzyme-inhibitory Activity: The enzyme-inhibitory activities in vitro of the compounds of this invention were measured by the following procedure according to the method of M. Muramatsu et al. [[…]. Makino, Y. Hayashi and S. Fujii: J.
# [2] = target: Bovine Thrombin (Bos taurus, UniProt P00735); assay: Inhibitory effect on ester-hydrolyzing activity of bovine thrombin (TAMe substrate); assay type: biochemical; settings: for inhibition at 1000 µM: read-out: percent inhibition at 10^-3 M (thrombin); for inhibitory action on thrombin: in vitro
# Method: (4) Inhibitory Effect on Ester-Hydrolyzing Activity of Bovine Thrombin
# It was measured by using 0.4 ml of bovine thrombin […], 0.02 M sodium phosphate buffer solution (pH 7.4) and TAMe as substrate following the method described in (1).
# [3] = target: Human Plasmin (Homo sapiens, UniProt P00747); assay: Inhibitory effect on ester-hydrolyzing activity of human plasmin (TAMe substrate); assay type: biochemical; settings: for inhibition at 1000 µM: read-out: percent inhibition at 10^-3 M (plasmin); for inhibitory action on plasmin: in vitro
# Sequence of Human Plasmin (P00747 581-810 limits assumed): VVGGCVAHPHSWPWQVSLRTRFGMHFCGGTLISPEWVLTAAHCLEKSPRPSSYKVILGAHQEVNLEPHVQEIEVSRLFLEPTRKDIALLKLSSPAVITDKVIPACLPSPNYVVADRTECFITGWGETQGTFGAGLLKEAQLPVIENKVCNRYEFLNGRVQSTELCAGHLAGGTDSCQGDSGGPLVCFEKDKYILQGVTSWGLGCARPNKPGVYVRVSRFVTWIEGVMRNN
# Sequence of Human Plasmin (P00747 97-580 partner limits assumed): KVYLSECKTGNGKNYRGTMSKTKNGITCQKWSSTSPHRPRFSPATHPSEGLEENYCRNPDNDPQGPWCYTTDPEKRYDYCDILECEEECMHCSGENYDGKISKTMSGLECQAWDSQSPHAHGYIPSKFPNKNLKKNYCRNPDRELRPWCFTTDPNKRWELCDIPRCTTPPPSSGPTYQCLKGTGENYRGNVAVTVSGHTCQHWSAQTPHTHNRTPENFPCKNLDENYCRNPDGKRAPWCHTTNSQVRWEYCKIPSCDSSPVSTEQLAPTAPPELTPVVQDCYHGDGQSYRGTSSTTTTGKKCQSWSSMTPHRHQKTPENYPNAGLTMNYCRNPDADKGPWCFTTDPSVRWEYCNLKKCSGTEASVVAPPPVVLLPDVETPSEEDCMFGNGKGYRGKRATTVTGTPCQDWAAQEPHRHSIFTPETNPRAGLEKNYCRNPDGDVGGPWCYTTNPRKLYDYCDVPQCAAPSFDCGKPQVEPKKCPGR
# Method: (A) Determination of Enzyme-inhibitory Activity: The enzyme-inhibitory activities in vitro of the compounds of this invention were measured by the following procedure according to the method of M. Muramatsu et al. [[…]. Makino, Y. Hayashi and S. Fujii: J. […] (2) Inhibitory Effect on Ester-hydrolyzing Activity of Human Plasmin It was measured by using 0.1 ml of plasmin (generated by activation of plasminogen with streptokinase) and TAMe as substrate following the method described in (1).
# [4] = target: T1, Trypsin (Bos taurus, UniProt P00760); assay: Inhibitory effect on ester-hydrolyzing activity of trypsin (TAMe substrate); assay type: biochemical; settings: for IC50 / inhibitory action on trypsin: in vitro; for IC50: tosylarginine methyl ester hydrolysis, read-out: ID50 (trypsin); for inhibition at 1000 µM: read-out: percent inhibition at 10^-3 M (trypsin)
# T1 sequence (P00760 24-246): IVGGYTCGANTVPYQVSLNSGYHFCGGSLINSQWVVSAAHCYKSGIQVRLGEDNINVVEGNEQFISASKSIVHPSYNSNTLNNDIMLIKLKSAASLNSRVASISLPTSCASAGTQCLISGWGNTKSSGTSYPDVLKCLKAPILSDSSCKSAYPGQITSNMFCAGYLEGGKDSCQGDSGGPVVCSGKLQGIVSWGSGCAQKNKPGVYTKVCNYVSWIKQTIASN
# Method: (A) Determination of Enzyme-inhibitory Activity: The enzyme-inhibitory activities in vitro of the compounds of this invention were measured by the following procedure according to the method of M. Muramatsu et al. [[…]. Makino, Y. Hayashi and S. Fujii: J. […] Then, 10 μmoles of the substrate, TAMe (tosylarginine methyl ester), was added, and incubation was performed at 37° C. for 30 minutes. After the incubation, 1.5 ml of 2 M alkaline hydroxylamine was added and thoroughly mixed, and allowed to stand at room temperature for 15 minutes.
# [5] = target: T2, Human Cl Esterase (Homo sapiens, UniProt P09871); assay: Inhibitory effect on ester-hydrolyzing activity of human Cl esterase (ATEe substrate); assay type: biochemical; settings: for inhibition at 1000 µM: read-out: percent inhibition at 10^-3 M (Cl esterase); for IC50 / inhibitory action on Cl esterase: in vitro; for IC50: acetyltyrosine ethyl ester hydrolysis, read-out: ID50 (Cl esterase)
# T2 sequence (P09871 438-688 limits assumed): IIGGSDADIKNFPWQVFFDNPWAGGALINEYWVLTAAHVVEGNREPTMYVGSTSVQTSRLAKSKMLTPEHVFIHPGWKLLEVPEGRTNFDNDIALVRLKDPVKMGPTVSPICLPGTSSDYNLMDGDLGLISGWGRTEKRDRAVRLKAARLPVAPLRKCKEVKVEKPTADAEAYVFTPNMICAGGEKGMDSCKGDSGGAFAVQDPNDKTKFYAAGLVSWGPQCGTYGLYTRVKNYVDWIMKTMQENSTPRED
# T2 sequence (P09871 16-437 partner limits assumed): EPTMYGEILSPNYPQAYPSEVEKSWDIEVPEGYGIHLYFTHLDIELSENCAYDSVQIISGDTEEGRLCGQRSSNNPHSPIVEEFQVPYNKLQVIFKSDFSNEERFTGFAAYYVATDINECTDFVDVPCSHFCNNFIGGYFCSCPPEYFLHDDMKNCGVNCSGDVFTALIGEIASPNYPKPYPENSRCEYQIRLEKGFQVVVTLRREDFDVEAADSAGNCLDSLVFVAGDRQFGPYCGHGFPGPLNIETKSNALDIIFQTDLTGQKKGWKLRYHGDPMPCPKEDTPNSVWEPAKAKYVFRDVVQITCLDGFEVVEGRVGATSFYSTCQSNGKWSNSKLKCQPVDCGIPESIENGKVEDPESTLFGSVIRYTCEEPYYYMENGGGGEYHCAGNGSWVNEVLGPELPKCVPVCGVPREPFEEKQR
# Method: It was measured by using 0.1 ml of Cl esterase, 0.1 ml of 0.02 M sodium phosphate buffer solution (pH 7.4) and 10 μmoles of ATEe (acetyltyrosine ethyl ester) as substrate following the method described in (1).
# [6] = system: collagen induced platelet aggregation of rabbit PRP; assay: Inhibition of collagen induced platelet aggregation of rabbit PRP; assay type: cell-based; settings: Oryctolagus cuniculus; for inhibition at 2.5 µg/mL: 2.5 μg/ml; for inhibition at 5 µg/mL: 5.0 μg/ml; for inhibition at 10 µg/mL: 10.0 μg/ml; for inhibition at 1 µg/mL: 1.0 μg/ml
# Method: (B) Determination of Inhibitory Activity on Collagen Induced Platelet Aggregation:
# According to the method of Born et al. [Born, G. V. R.: J. Physiol., 168. 178 (1963)], the platelet aggregation inhibition (%) was determined at various concentrations of compounds by the following procedure:
# Rabbit PRP (platelet rich plasma), 0.9 ml, obtained from sodium citrate-added blood, was taken into a polyethylene tube and incubated at 37° C. for 1 minute, and then 10 μl of a compound solution or physiological saline as control, was added.
# Subsequently, 0.1 ml of collagen solution was added, and change in absorbance of PRP, resulting from the progress of platelet aggregation, was determined by means of platelet aggregation meter and recorded.
# Percent inhibition was calculated according to the following equation: [formula]
Structure (SMILES),inhibition at 1000 µM [1] [%],inhibition at 1000 µM [2] [%],inhibition at 1000 µM [3] [%],IC50 [4] [µM],inhibition at 1000 µM [5] [%],inhibition at 1000 µM [4] [%],inhibition at 10 µg/mL [6] [%],IC50 [5] [µM],also measured
"CC(Cc1cccc(N)c1)C(=O)Oc1ccc(Cl)cc1 (stereo not drawn) [compound 5, p-chlorophenyl α-methyl-β-(m-aminophenyl)-propionate]",< 10,< 10,< 10,10,< 10,–,–,–,–
"CC(Cc1ccc(N)cc1)C(=O)Oc1ccc(Cl)cc1 (stereo not drawn) [Compound No. 2, p-Chlorophenyl α-methyl-β-(p-aminophenyl)-propionate hydrochloride]",–,–,–,330,–,–,–,–,–
"CCCCOc1ccc(OC(=O)CCc2ccc(NC(=N)N)cc2)cc1 [compound 71, p-n-butoxyphenyl β-(p-guanidinophenyl)-propionate]",1.5,< 10,20,660,< 10,–,–,–,–
"COc1ccc(OC(=O)CCc2ccc(N)cc2)cc1 [compound 32, p-methoxyphenyl β-(p-aminophenyl)-propionate]",< 10,–,< 10,–,< 10,38.8,100,–,IC50 [2]: 170 µM; inhibition at 2.5 µg/mL [6]: 41%; inhibition at 5 µg/mL [6]: 100%
"CC(Cc1cccc(NC(=N)N)c1)C(=O)Oc1cccc2ccccc12 (stereo not drawn) [compound 50, 1-naphthyl α-methyl-β-(m-guanidinophenyl)-propionate]",–,< 10,42,57,–,–,100,140,inhibition at 1 µg/mL [6]: 4%; inhibition at 2.5 µg/mL [6]: 100%; inhibition at 5 µg/mL [6]: 100%
"CCC(Cc1cccc(N)c1)C(=O)Oc1cccc2ccccc12 (stereo not drawn) [Compound No. 7, 1-naphthyl α-ethyl-β-(m-aminophenyl)-propionate]",–,< 10,< 10,10,11.7,–,100,–,inhibition at 2.5 µg/mL [6]: 37%; inhibition at 5 µg/mL [6]: 84%
"Cc1ccc(OC(=O)C(C)Cc2ccc(NC(=N)N)cc2)cc1 (stereo not drawn) [Compound No. 45, p-Methylphenyl α-methyl-β-(p-guanidinophenyl)-propionate hydrochloride]",< 10,< 10,< 10,–,–,21.4,–,780,–
"CCC(Cc1cccc(NC(=N)N)c1)C(=O)Oc1ccccc1 (stereo not drawn) [compound 65, phenyl α-ethyl-β-(m-guanidinophenyl)-propionate]",15.6,16.8,< 10,–,–,35,–,70,–
"CCOC(=O)c1ccc(OC(=O)CCc2ccc(NC(=N)N)cc2)cc1.Cl [Compound No. 47, p-Ethoxycarbonylphenyl β-(p-guanidinophenyl)-propionate hydrochloride]",36,12.3,< 10,78,< 10,–,–,–,inhibitory action on kallikrein [1]: no inhibitory action; inhibitory action on thrombin [2]: no inhibitory action; inhibitory action on plasmin [3]: no inhibitory action; inhibitory action on Cl esterase [5]: no inhibitory action
"Cc1ccc(OC(=O)CCc2ccc(N)cc2)cc1 [Compound No. 1, p-Methylphenyl β-(p-aminophenyl)-propionate hydrochloride]",< 10,–,< 10,–,< 10,< 10,42,–,IC50 [2]: 880 µM
"CC(Cc1cccc(NC(=N)N)c1)C(=O)Oc1ccccc1.O=C(O)O (stereo not drawn) [Compound No. 46, Phenyl α-methyl-β-(m-guanidinophenyl)-propionate carbonate]",12.9,< 10,< 10,–,–,12.2,–,310,inhibitory action on kallikrein [1]: no inhibitory action; inhibitory action on thrombin [2]: no inhibitory action; inhibitory action on plasmin [3]: no inhibitory action; inhibitory action on trypsin [4]: no inhibitory action
"CCCCOc1ccc(OC(=O)CCc2ccc(N)cc2)cc1 [compound 33, p-n-butoxyphenyl β-(p-aminophenyl)-propionate]",< 10,19.9,< 10,890,< 10,–,100,–,inhibition at 0.5 µg/mL ([6]; 0.5 μg/ml): 46%; inhibition at 1 µg/mL [6]: 100%; inhibition at 2.5 µg/mL [6]: 100%; inhibition at 5 µg/mL [6]: 100%
"CC(Cc1ccc(NC(=N)N)cc1)C(=O)Oc1ccc(Cl)cc1 (stereo not drawn) [compound 52, p-chlorophenyl α-methyl-β-(p-guanidinophenyl)-propionate]",38.4,< 10,18.8,490,–,–,–,56,–
"Cl.Nc1ccc(CCC(=O)Oc2ccccc2)cc1 [Compound No. 3, Phenyl β-(p-aminophenyl)-propionate hydrochloride]",< 10,–,< 10,–,< 10,< 10,–,–,inhibitory action on kallikrein [1]: no inhibitory action; IC50 [2]: 290 µM; inhibitory action on plasmin [3]: no inhibitory action; inhibitory action on trypsin [4]: no inhibitory action; inhibitory action on Cl esterase [5]: no inhibitory action
"CC(=O)Oc1ccccc1C(=O)O [aspirin, reference compound]",–,–,–,–,–,–,100,–,inhibition at 5 µg/mL [6]: 78%
"CCC(Cc1cccc(N)c1)C(=O)Oc1ccc(OC)cc1 (stereo not drawn) [Compound No. 4, p-Methoxyphenyl α-ethyl-β-(m-aminophenyl)-propionate hydrochloride]",< 10,< 10,< 10,–,14.8,–,–,–,IC50 ([4]; 30 min): 400 µM
"CC(Cc1cccc(NC(=N)N)c1)C(=O)Oc1ccc(Cl)cc1 (stereo not drawn) [Compound No. 44, p-Chlorophenyl α-methyl-β-(m-guanidinophenyl)-propionate carbonate]",–,–,–,–,–,–,–,250,–
"CCOC(=O)c1ccc(OC(=O)C(CC)Cc2ccc(N)cc2)cc1 (stereo not drawn) [compound 36, p-ethoxycarbonylphenyl α-ethyl-β-(p-aminophenyl)-propionate]",15.9,25.3,< 10,170,< 10,–,–,–,–
